Patent US20100035866A1, “NOVEL SUBSTITUTED-1, 1-DIOXO-BENZO[1,2,4]THIADIAZIN-3ONES, PREPARATION METHOD THEREOF, AND PHARMACEUTICAL COMPOSITION CONTAINING THE SAME” (KOREA RESEARCH INSTITUTE OF CHEMICAL TECHNOLOGY, priority 2006, published 2010)

Key:
[1] = biological target: Human serotonin 5-HT6 receptor (Homo sapiens, UniProt P50406); test: [3H]LSD binding assay on cloned 5-HT6 receptor; details: IC50 (nM), binding affinity to the 5-HT6 receptor, Table 2; 1.87 nM [3H]LSD, cloned human receptor membranes from Sf21 cells, 37° C. 60 min
Chain of Human serotonin 5-HT6 receptor (P50406 whole entry): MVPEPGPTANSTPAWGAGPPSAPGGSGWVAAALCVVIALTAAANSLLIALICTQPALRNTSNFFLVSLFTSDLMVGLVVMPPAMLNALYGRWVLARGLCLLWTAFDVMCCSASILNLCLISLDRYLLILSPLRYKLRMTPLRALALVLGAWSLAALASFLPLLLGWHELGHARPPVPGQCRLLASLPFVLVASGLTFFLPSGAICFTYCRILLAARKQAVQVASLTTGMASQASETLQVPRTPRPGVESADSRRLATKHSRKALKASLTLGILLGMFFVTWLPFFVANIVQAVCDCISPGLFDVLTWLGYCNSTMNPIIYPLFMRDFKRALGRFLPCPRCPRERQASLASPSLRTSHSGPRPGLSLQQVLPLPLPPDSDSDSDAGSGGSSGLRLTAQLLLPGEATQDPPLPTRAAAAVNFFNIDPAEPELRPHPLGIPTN

SMILES | melting point [°C] | IC50 [1] [nM]
CN1CCN(c2cc(Cl)cc3c2S(=O)(=O)N(CCc2ccccc2)C(=O)N3Cc2ccccc2)CC1 [Example 37, 4-Benzyl-6-chloro-8-(4-methyl-piperazin-1-yl)-1,1-dioxo-2-phenethyl-1,4-dihydro-2H-1λ^6-benzo[1,2,4]thiadiazin-3-one] | 151 to 152 | 6.9
CN1CCN(c2cc(Cl)cc3c2S(=O)(=O)N(Cc2ccncc2)C(=O)N3Cc2ccccc2)CC1 [Example 42, 4-Benzyl-6-chloro-8-(4-methyl-piperazin-1-yl)-1,1-dioxo-2-pyridin-4-ylmethyl-1,4-dihydro-2H-1λ^6-benzo[1,2,4]thiadiazin-3-one] | 107 to 108 | 7.7
Cc1ccc(CN2C(=O)N(Cc3ccccc3)c3cc(Cl)cc(N4CCN(C)CC4)c3S2(=O)=O)o1 [Example 43, 4-Benzyl-6-chloro-2-(5-methyl-furan-2-ylmethyl)-8-(4-methyl-piperazin-1-yl)-1,1-dioxo-1,4-dihydro-2H-1λ^6-benzo[1,2,4]thiadiazin-3-one] | 130 to 131 | 75.9
O=C1N(Cc2ccccc2)c2cc(Cl)cc(N3CCNCC3)c2S(=O)(=O)N1Cc1ccccc1F [Example 45, 4-Benzyl-6-chloro-2-(2-fluoro-benzyl)-1,1-dioxo-8-piperazin-1-yl-1,4-dihydro-2H-1λ^6-benzo[1,2,4]thiadiazin-3-one] | 120 to 121 | 18.7
O=C1N(Cc2ccccc2)c2cc(Cl)cc(N3CCNCC3)c2S(=O)(=O)N1Cc1ccccc1Cl [Example 47, 4-Benzyl-6-chloro-2-(2-chloro-benzyl)-1,1-dioxo-8-piperazin-1-yl-1,4-dihydro-2H-1λ^6-benzo[1,2,4]thiadiazin-3-one] | 126 to 127 | 15.9
O=C1N(Cc2ccccc2)c2cc(Cl)cc(N3CCNCC3)c2S(=O)(=O)N1Cc1ccccc1Br [Example 48, 4-Benzyl-2-(2-bromo-benzyl)-6-chloro-1,1-dioxo-8-piperazin-1-yl-1,4-dihydro-2H-1λ^6-benzo[1,2,4]thiadiazin-3-one] | 144 to 145 | 46
O=C1N(Cc2ccccc2)c2cc(Cl)cc(N3CCNCC3)c2S(=O)(=O)N1Cc1ccc(I)cc1 [Example 49, 4-Benzyl-6-chloro-2-(4-iodo-benzyl)-1,1-dioxo-8-piperazin-1-yl-1,4-dihydro-2H-1λ^6-benzo[1,2,4]thiadiazin-3-one] | 153 to 154 | 17.1
Cc1ccccc1CN1C(=O)N(Cc2ccccc2)c2cc(Cl)cc(N3CCNCC3)c2S1(=O)=O [Example 50, 4-Benzyl-6-chloro-2-(2-methyl-benzyl)-1,1-dioxo-8-piperazin-1-yl-1,4-dihydro-2H-1λ^6-benzo[1,2,4]thiadiazin-3-one] | 70 to 72 | 22.2
COc1ccccc1CN1C(=O)N(Cc2ccccc2)c2cc(Cl)cc(N3CCNCC3)c2S1(=O)=O [Example 51, 4-Benzyl-6-chloro-2-(2-methoxy-benzyl)-1,1-dioxo-8-piperazin-1-yl-1,4-dihydro-2H-1λ^6-benzo[1,2,4]thiadiazin-3-one] | 129 to 130 | 48.9
O=C1N(Cc2ccccc2)c2cc(Cl)cc(N3CCNCC3)c2S(=O)(=O)N1Cc1ccccc1[N+](=O)[O-] [Example 55, 4-Benzyl-6-chloro-2-(2-nitro-benzyl)-1,1-dioxo-8-piperazin-1-yl-1,4-dihydro-2H-1λ^6-benzo[1,2,4]thiadiazin-3-one] | 134 to 135 | 33
COC(=O)c1ccc(CN2C(=O)N(Cc3ccccc3)c3cc(Cl)cc(N4CCNCC4)c3S2(=O)=O)cc1 [Example 56, 4-(4-Benzyl-6-chloro-1,1,3-trioxo-8-piperazin-1-yl-3,4-dihydro-1H-1λ^6-benzo[1,2,4]thiadiazin-2-ylmethyl)-benzoic acid methyl ester] | 136 to 139 | 8.4
N#Cc1ccc(CN2C(=O)N(Cc3ccccc3)c3cc(Cl)cc(N4CCNCC4)c3S2(=O)=O)cc1 [Example 57, 4-(4-Benzyl-6-chloro-1,1,3-trioxo-8-piperazin-1-yl-3,4-dihydro-1H-1λ^6-benzo[1,2,4]thiadiazin-2-ylmethyl)-benzonitrile] | 135 to 137 | 18
O=C1N(Cc2ccccc2)c2cc(Cl)cc(N3CCNCC3)c2S(=O)(=O)N1c1ccccc1 [Example 60, 4-Benzyl-6-chloro-1,1-dioxo-2-phenyl-8-piperazin-1-yl-1,4-dihydro-2H-1λ^6-benzo[1,2,4]thiadiazin-3-one] | 275 to 277 | 15.5
COc1ccccc1N1C(=O)N(Cc2ccccc2)c2cc(Cl)cc(N3CCNCC3)c2S1(=O)=O [Example 61, 4-Benzyl-6-chloro-2-(2-methoxy-phenyl)-1,1-dioxo-8-piperazin-1-yl-1,4-dihydro-2H-1λ^6-benzo[1,2,4]thiadiazin-3-one] | 175 to 176 | 50.7
COc1ccc(N2C(=O)N(Cc3ccccc3)c3cc(Cl)cc(N4CCNCC4)c3S2(=O)=O)cc1 [Example 63, 4-Benzyl-6-chloro-2-(4-methoxy-phenyl)-1,1-dioxo-8-piperazin-1-yl-1,4-dihydro-2H-1λ^6-benzo[1,2,4]thiadiazin-3-one] | 155 to 156 | 28
CCN1C(=O)N(Cc2ccccc2)c2cc(Cl)cc(N3CCNCC3)c2S1(=O)=O [Example 64, 4-Benzyl-6-chloro-2-ethyl-1,1-dioxo-8-piperazin-1-yl-1,4-dihydro-2H-1λ^6-benzo[1,2,4]thiadiazin-3-one] | 158 to 161 | 4.6
O=C1N(Cc2ccccc2)c2cc(Cl)cc(N3CCNCC3)c2S(=O)(=O)N1Cc1cccc2ccccc12 [Example 68, 4-Benzyl-6-chloro-2-naphthalen-1-ylmethyl-1,1-dioxo-8-piperazin-1-yl-1,4-dihydro-2H-1λ^6-benzo[1,2,4]thiadiazin-3-one] | 164 to 166 | 6.9
O=C1N(Cc2ccccc2)c2cc(Cl)cc(N3CCOCC3)c2S(=O)(=O)N1Cc1ccccc1Cl [Example 69, 4-Benzyl-6-chloro-2-(2-chloro-benzyl)-8-morpholin-4-yl-1,1-dioxo-1,4-dihydro-2H-1λ^6-benzo[1,2,4]thiadiazin-3-one] | 171 to 172 | > 1000
O=C1N(Cc2ccccc2)c2cc(Cl)cc(N3CCN(c4ccccn4)CC3)c2S(=O)(=O)N1Cc1ccccc1Cl [Example 70, 4-Benzyl-6-chloro-2-(2-chloro-benzyl)-1,1-dioxo-8-(4-pyridin-2-yl-piperazin-1-yl)-1,4-dihydro-2H-1λ^6-benzo[1,2,4]thiadiazin-3-one] | 159 to 161 | > 1000
C[C@@H]1CN(c2cc(Cl)cc3c2S(=O)(=O)N(Cc2ccccc2Cl)C(=O)N3Cc2ccccc2)CCN1 [Example 71, 4-Benzyl-6-chloro-2-(2-chloro-benzyl)-8-[(R)-3-methyl-piperazin-1-yl]-1,1-dioxo-1,4-dihydro-2H-1λ^6-benzo[1,2,4]thiadiazin-3-one] | 134 to 136 | 147
C[C@H]1CN(c2cc(Cl)cc3c2S(=O)(=O)N(Cc2ccccc2Cl)C(=O)N3Cc2ccccc2)CCN1 [Example 72, 4-Benzyl-6-chloro-2-(2-chloro-benzyl)-8-[(S)-3-methyl-piperazin-1-yl]-1,1-dioxo-1,4-dihydro-2H-1λ^6-benzo[1,2,4]thiadiazin-3-one] | 142 to 143 | 6.8
O=C1N(Cc2ccccc2)c2cc(Cl)cc(N3CCN4CCC[C@H]4C3)c2S(=O)(=O)N1Cc1ccccc1Cl [Example 73, 4-Benzyl-6-chloro-2-(2-chloro-benzyl)-8-[(6S)-1,4-diazabicyclo[4.3.0]non-4-yl]-1,1-dioxo-1,4-dihydro-2H-1λ^6-benzo[1,2,4]thiadiazin-3-one] | 143 to 144 | 16
O=C1N(Cc2ccccc2)c2cc(Cl)cc(N3CCN4CCCC[C@@H]4C3)c2S(=O)(=O)N1Cc1ccccc1Cl [Example 75, 4-Benzyl-6-chloro-2-(2-chloro-benzyl)-8-[(6R)-1,4-diazabicyclo[4.4.0]dec-4-yl]-1,1-dioxo-1,4-dihydro-2H-1λ^6-benzo[1,2,4]thiadiazin-3-one] | 157 to 159 | 396
